Active and inactive are the calls of the source. No rule for the calls is given here.
System: CCRIS mutagenicity, Ames/micronucleus/aberration tests
Assay: CCRIS mutagenicity studies
Description: The CCRIS database contains chemical records with carcinogenicity, mutagenicity, tumor promotion, and tumor inhibition test results. It was developed by the National Cancer Institute (NCI). Data are derived from studies cited in primary journals, current awareness tools, NCI reports, and other sources. Test results have been reviewed by experts in carcinogenesis and mutagenesis.
CCRIS provides historical information from the years 1985 - 2011. It is no longer updated.
This is an archive assay for CCRIS mutagenicity studies.

## Nc1ccccc1
Test System: AMES SALMONELLA TYPHIMURIUM, Strain/Indicator: TA1535, Metabolic Activation: RAT, LIVER, S-9, Method: STANDARD PLATE
  mutagenic call: inactive; negative
Test System: AMES SALMONELLA TYPHIMURIUM, Strain/Indicator: TA1537, Metabolic Activation: HAMSTER, LIVER, S-9, AROCLOR 1254, Method: STANDARD PLATE
  mutagenic call: inactive; negative
Test System: AMES SALMONELLA TYPHIMURIUM, Strain/Indicator: TA1537, Metabolic Activation: HAMSTER, LIVER, S-9, Method: STANDARD PLATE
  mutagenic call: inactive; negative
Test System: AMES SALMONELLA TYPHIMURIUM, Strain/Indicator: TA1537, Metabolic Activation: MOUSE, LIVER, S-9, AROCLOR 1254, Method: STANDARD PLATE
  mutagenic call: inactive; negative
Test System: AMES SALMONELLA TYPHIMURIUM, Strain/Indicator: TA1537, Metabolic Activation: MOUSE, LIVER, S-9, Method: STANDARD PLATE
  mutagenic call: inactive; negative
Test System: AMES SALMONELLA TYPHIMURIUM, Strain/Indicator: TA1537, Metabolic Activation: NONE, Method: STANDARD PLATE
  mutagenic call: inactive; negative
Test System: AMES SALMONELLA TYPHIMURIUM, Strain/Indicator: TA1537, Metabolic Activation: RAT, LIVER, S-9, AROCLOR 1254, Method: STANDARD PLATE
  mutagenic call: inactive; negative
Test System: AMES SALMONELLA TYPHIMURIUM, Strain/Indicator: TA1537, Metabolic Activation: RAT, LIVER, S-9, PYRAZOLE, Method: PREINCUBATION
  mutagenic call: inactive; negative
Test System: AMES SALMONELLA TYPHIMURIUM, Strain/Indicator: TA1537, Metabolic Activation: RAT, LIVER, S-9, Method: STANDARD PLATE
  mutagenic call: inactive; negative
Test System: AMES SALMONELLA TYPHIMURIUM, Strain/Indicator: TA1538, Metabolic Activation: HAMSTER, LIVER, S-9, AROCLOR 1254, Method: STANDARD PLATE
  mutagenic call: inactive; negative
Test System: AMES SALMONELLA TYPHIMURIUM, Strain/Indicator: TA1538, Metabolic Activation: HAMSTER, LIVER, S-9, Method: STANDARD PLATE
  mutagenic call: inactive; negative
Test System: AMES SALMONELLA TYPHIMURIUM, Strain/Indicator: TA1538, Metabolic Activation: HAMSTER, SPLEEN, S-9, AROCLOR 1254, Method: STANDARD PLATE
  mutagenic call: inactive; negative
Test System: AMES SALMONELLA TYPHIMURIUM, Strain/Indicator: TA1538, Metabolic Activation: MOUSE, LIVER, S-9, AROCLOR 1254, Method: STANDARD PLATE
  mutagenic call: inactive; negative
Test System: AMES SALMONELLA TYPHIMURIUM, Strain/Indicator: TA1538, Metabolic Activation: MOUSE, LIVER, S-9, Method: STANDARD PLATE
  mutagenic call: inactive; negative
Test System: AMES SALMONELLA TYPHIMURIUM, Strain/Indicator: TA1538, Metabolic Activation: NONE, Method: STANDARD PLATE
  mutagenic call: inactive; negative
Test System: AMES SALMONELLA TYPHIMURIUM, Strain/Indicator: TA1538, Metabolic Activation: RAT, LIVER, S-9, AROCLOR 1254, Method: PREINCUBATION
  mutagenic call: inactive; negative
Test System: AMES SALMONELLA TYPHIMURIUM, Strain/Indicator: TA1538, Metabolic Activation: RAT, LIVER, S-9, AROCLOR 1254, Method: STANDARD PLATE
  mutagenic call: inactive; negative
Test System: AMES SALMONELLA TYPHIMURIUM, Strain/Indicator: TA1538, Metabolic Activation: RAT, LIVER, S-9, Method: STANDARD PLATE
  mutagenic call: inactive; negative
Test System: AMES SALMONELLA TYPHIMURIUM, Strain/Indicator: TA1538, Metabolic Activation: RAT, SPLEEN, S-9, AROCLOR 1254, Method: STANDARD PLATE
  mutagenic call: inactive; negative
Test System: CHINESE HAMSTER V-79, Strain/Indicator: V-79/6-THIOGUANINE, Metabolic Activation: NONE, Method: SUSPENSION/PLATE
  mutagenic call: inactive; negative
Test System: CHINESE HAMSTER V-79, Strain/Indicator: V-79/6-THIOGUANINE, Metabolic Activation: RAT, LIVER, HEPATOCYTES, Method: SUSPENSION/PLATE
  mutagenic call: inactive; negative
Test System: CHINESE HAMSTER V-79, Strain/Indicator: V-79/6-THIOGUANINE, Metabolic Activation: RAT, LIVER, S-9, PHENOBARBITAL AND BETA-NAPHTHOFLAVONE, Method: SUSPENSION/PLATE
  mutagenic call: active; positive
Test System: CHINESE HAMSTER V-79, Strain/Indicator: V-79/8-AZAGUANINE, Metabolic Activation: NONE, Method: SUSPENSION/PLATE
  mutagenic call: active; positive
Test System: CHINESE HAMSTER V-79, Strain/Indicator: V-79/8-AZAGUANINE, Metabolic Activation: S-9, Method: SUSPENSION/PLATE
  mutagenic call: active; positive
Test System: CHINESE HAMSTER V-79, Strain/Indicator: V-79/OUABAIN, Metabolic Activation: NONE, Method: SUSPENSION/PLATE
  mutagenic call: inactive; negative
Test System: CHINESE HAMSTER V-79, Strain/Indicator: V-79/OUABAIN, Metabolic Activation: S-9, Method: SUSPENSION/PLATE
  mutagenic call: inactive; negative
Test System: E. COLI, Strain/Indicator: WP2 UVRA, Metabolic Activation: HAMSTER, LIVER, S-9, AROCLOR 1254, Method: PREINCUBATION
  mutagenic call: inactive; negative
Test System: E. COLI, Strain/Indicator: WP2 UVRA, Metabolic Activation: HAMSTER, LIVER, S-9, AROCLOR 1254, Method: STANDARD PLATE
  mutagenic call: inactive; negative
Test System: E. COLI, Strain/Indicator: WP2 UVRA, Metabolic Activation: HAMSTER, LIVER, S-9, Method: PREINCUBATION
  mutagenic call: inactive; negative
Test System: E. COLI, Strain/Indicator: WP2 UVRA, Metabolic Activation: HAMSTER, LIVER, S-9, Method: STANDARD PLATE
  mutagenic call: inactive; negative
Test System: E. COLI, Strain/Indicator: WP2 UVRA, Metabolic Activation: MOUSE, LIVER, S-9, AROCLOR 1254, Method: PREINCUBATION
  mutagenic call: inactive; negative
Test System: E. COLI, Strain/Indicator: WP2 UVRA, Metabolic Activation: MOUSE, LIVER, S-9, AROCLOR 1254, Method: STANDARD PLATE
  mutagenic call: inactive; negative
Test System: E. COLI, Strain/Indicator: WP2 UVRA, Metabolic Activation: MOUSE, LIVER, S-9, Method: PREINCUBATION
  mutagenic call: inactive; negative
Test System: E. COLI, Strain/Indicator: WP2 UVRA, Metabolic Activation: MOUSE, LIVER, S-9, Method: STANDARD PLATE
  mutagenic call: inactive; negative
Test System: E. COLI, Strain/Indicator: WP2 UVRA, Metabolic Activation: NONE, Method: FLUCTUATION TEST
  mutagenic call: inactive; negative
Test System: E. COLI, Strain/Indicator: WP2 UVRA, Metabolic Activation: NONE, Method: PREINCUBATION
  mutagenic call: inactive; negative
Test System: E. COLI, Strain/Indicator: WP2 UVRA, Metabolic Activation: NONE, Method: STANDARD PLATE
  mutagenic call: inactive; negative
Test System: E. COLI, Strain/Indicator: WP2 UVRA, Metabolic Activation: RAT, LIVER, S-9, AROCLOR 1254, Method: PREINCUBATION
  mutagenic call: inactive; negative
Test System: E. COLI, Strain/Indicator: WP2 UVRA, Metabolic Activation: RAT, LIVER, S-9, AROCLOR 1254, Method: STANDARD PLATE
  mutagenic call: inactive; negative
Test System: E. COLI, Strain/Indicator: WP2 UVRA, Metabolic Activation: RAT, LIVER, S-9, Method: PREINCUBATION
  mutagenic call: inactive; negative
Test System: E. COLI, Strain/Indicator: WP2 UVRA, Metabolic Activation: RAT, LIVER, S-9, Method: STANDARD PLATE
  mutagenic call: inactive; negative
Test System: MOUSE LYMPHOMA, Strain/Indicator: L5178Y (TK+/TK-), Metabolic Activation: NONE, Method: SUSPENSION/PLATE
  mutagenic call: active; positive
Test System: MOUSE LYMPHOMA, Strain/Indicator: L5178Y (TK+/TK-), Metabolic Activation: RAT, LIVER, S-9, AROCLOR 1254, Method: SUSPENSION/PLATE
  mutagenic call: active; positive
Test System: UDS RAT HEPATOCYTES, Strain/Indicator: BROMODEOXYURIDINE INCORP, Metabolic Activation: NONE, Method: FLOW CYTOMETRIC ANALYSIS
  mutagenic call: inactive; negative
Test System: UDS RAT HEPATOCYTES, Strain/Indicator: THY INCORP, Metabolic Activation: NONE, Method: AUTORADIOGRAPHY
  mutagenic call: inactive; negative
Test System: UDS RODENT HEPATOCYTES, Strain/Indicator: THY INCORP (NON-S-PHASE), Metabolic Activation: NONE, Method: AUTORADIOGRAPHY
  mutagenic call: inactive; negative

Reference: PubChem BioAssay AID1259407 (Chemical Carcinogenesis Research Information System (CCRIS), 2018)
